Results as given in patent US20030195170A1, “Novel polymorphs and pseudopolymorphs of risedronate sodium” (priority 2002, published 2003).

Tests used:
Assay type in all cases: physicochemical
[1] = Physical stability of crystal forms at high relative humidity (one week storage)
Source text: X-ray diffraction data described herein was obtained by the powder diffraction method. X-Ray powder diffraction data were obtained using methods known in the art with a SCINTAG powder X-Ray diffractometer model X'TRA equipped with a solid state detector. Copper radiation of 1.5418 Å was used. A round aluminum sample holder with a round zero background quartz plate, with cavity of 25 mm×0.5 mm.
Thermogravimetric analysis (TGA) is a technique of thermal analysis well known in the art and measures the change in weight of a sample as a function of temperature. The technique is particularly well suited for measurement of, for example, decomposition and desolvation. TGA results reported herein were obtained using a Mettler TG50. Sample size was between about 6 and about 15 mg. Samples were analyzed at a heating rate of 10° C./min from 25° C. to 250 C. The oven was purged with nitrogen gas at a flow rate of 40 ml/min. Standard alumina crucibles covered by lids with one hole were used.
(§1) The stability of crystalline forms of risedronate sodium against transformation to form A is measured by exposing a sample to an atmosphere having a percent relative humidity (RH or %RH) of at least about 50% at a temperature greater than room temperature for a period of time. It is convenient to evaluate the stability of a crystalline form of risedronate sodium against transformation to form A by exposing a sample to an atmosphere having RH of about 75% at a temperature of 40° C. for a period of at least 3 months. The experience of the skilled artisan teaches that a pharmaceutical that is stable under these conditions will be stable for at least 2 years at room temperature.

[2] = Stability test of risedronate tablets at 40° C., 75% RH (crystal form by X-Ray powder diffraction); settings: 5 months, stressed conditions of 40° C. and 75% RH
Source text: The crystal form (detected from X-Ray powder diffraction data) of Risedronate active ingredient in the tablet are shown in the following table.

[3] = Stability of form B against transformation to form A at 40° C. / 75% RH
Protocol: X-ray diffraction analysis can be used to detect and quantify one crystalline form of risedronate sodium in another.
as §1

[4] = Physical stability of crystal forms at high relative humidity (one week storage); settings: 80%-100% RH at room temperature for at least one week; 'not substantially' = not more than about 20%
[5] = relative humidity 80%, one week storage, listed as D (MS-273), monosodium salt

O=P([O-])(O)C(O)(Cc1cccnc1)P(=O)(O)O.[Na+] [Form A, 1-hydroxy-2(3-pyridinyl)ethylidene bis phosphonic acid monosodium salt, reference compound]
TGA Weight Loss (%) ([1]; relative humidity 80%, one week storage, listed as A (LB-91), monosodium salt): 13.6%

O=P([O-])(O)C(O)(Cc1cccnc1)P(=O)(O)O.[Na+] [Form B, 1-hydroxy-2(3-pyridinyl)ethylidene bis phosphonic acid monosodium salt]
Conversion to form A hemipentahydrate ([1]; 75% to 100% RH for one week or more, 'not substantially' = not more than about 20%): does not substantially convert | TGA Weight Loss (%) ([1]; relative humidity 80%, one week storage, listed as B (LB-89), monosodium salt): 6.5% | Stability of form B in tablets [2]: stable | Part of form B that transforms to form A ([3]; RH of 75% at 40° C. for at least three months): less than 20% | Conversion to form A hemipentahydrate ([3]; storage at 40° C. and 75% RH for 6 months, 'not substantially' = not more than about 20%): does not substantially convert

O=P([O-])(O)C(O)(Cc1cccnc1)P(=O)(O)O.[Na+] [Form C, 1-hydroxy-2(3-pyridinyl)ethylidene bis phosphonic acid monosodium salt]
TGA Weight Loss (%) ([1]; relative humidity 80%, one week storage, listed as C (LB-87), monosodium salt): 16.0% | Resulting form ([1]; relative humidity 80%, one week storage, listed as form C, monosodium salt): a mixture of form C and form H | Conversion to form A [4]: does not substantially convert

O=P([O-])(O)C(O)(Cc1cccnc1)P(=O)(O)O.[Na+] [Form D, 1-hydroxy-2(3-pyridinyl)ethylidene bis phosphonic acid monosodium salt]
Resulting form [1, 5]: D > B | TGA Weight Loss (%) [1, 5]: 1.1% | Resulting form ([1]; relative humidity 80%, one week storage, listed as form D, monosodium salt): a mixture of form D and form B | Resulting form ([1]; relative humidity 80-100%, one week storage, monosodium salt): form B

O=P([O-])(O)C(O)(Cc1cccnc1)P(=O)(O)O.[Na+] [Form E, 1-hydroxy-2(3-pyridinyl)ethylidene bis phosphonic acid monosodium salt]
TGA Weight Loss (%) ([1]; relative humidity 80%, one week storage, listed as E (MS-277), monosodium salt): 14.0% | Resulting form ([1]; relative humidity 80%, one week storage, listed as form E, monosodium salt): form A with a small quantity of form D

O=P([O-])(O)C(O)(Cc1cccnc1)P(=O)(O)O.[Na+] [Form F, 1-hydroxy-2(3-pyridinyl)ethylidene bis phosphonic acid monosodium salt]
TGA Weight Loss (%) ([1]; relative humidity 20-60%, one week storage): 4-6% | Resulting form ([1]; relative humidity 80%, one week storage, listed as form F, monosodium salt): a mixture of form BB | TGA Weight Loss (%) ([1]; relative humidity 80-100%, one week storage): 11.3-12.3% | Resulting form ([1]; relative humidity 80-100%, one week storage, listed as F (LB-104 160 C. 8 hr), monosodium salt): BB > A | Resulting form ([1]; relative humidity 80-100%, one week storage, listed as form F, monosodium salt): form BB | Resulting form ([1]; relative humidity 100%, one week storage, listed as form F, monosodium salt): form BB | Rearrangement to the hemipentahydrate form ([1]; up to 100% relative humidity, one week storage): does not substantially rearrange

O=P([O-])(O)C(O)(Cc1cccnc1)P(=O)(O)O.[Na+] [Form G, 1-hydroxy-2(3-pyridinyl)ethylidene bis phosphonic acid monosodium salt]
TGA Weight Loss (%) ([1]; relative humidity 20-80%, one week storage): 9.4-10.2% | TGA Weight Loss (%) ([1]; relative humidity 100%, one week storage): 12.6% | Resulting form ([1]; relative humidity 100%, one week storage, listed as G (MS-257 160 C. 8 hr), monosodium salt): G + A | Resulting form ([1]; relative humidity 100%, one week storage, listed as form G, monosodium salt): a mixture of form G and form A
